Assay: Particle size distribution of hesperidin by laser diffraction (Malvern Mastersizer 2000)
Type: physicochemical
Protocol: The particle size distribution is observed using a microscopy optic LEICA DMR (mode Differential Interference Contrast and polarisation). The particle size distribution is measured by laser diffraction using a Malvern Mastersizer 2000.

COc1ccc([C@@H]2CC(=O)c3c(O)cc(O[C@@H]4O[C@H](CO[C@@H]5O[C@@H](C)[C@H](O)[C@@H](O)[C@H]5O)[C@@H](O)[C@H](O)[C@H]4O)cc3O2)cc1O [Commercially available hesperidin, hesperidin]
% of cumulative distribution of hesperidin particle size below 20 microns (0.1% hesperidin in water, Example 1): 40% | % of cumulative distribution < 20 microns of hesperidin in water (hesperidin in water, Example 4): Average 40%

From patent US20120277298A1, “FLAVANONES-CONTAINING FOOD COMPOSITIONS” (NESTEC S.A., priority 2009, published 2012)
